Where two headings read alike, the source gives them in different places.
Assays:
[1] = parameters: method as in earlier work; details: earlier report; cited from earlier work
[2] = tested on: MCF-7 human breast cancer cell line; assay: MTT cytotoxicity assay, MCF-7; assay type: cell-based; details: for IC50: Homo sapiens; for selectivity index MCF-7: IC50 HDF / IC50 MCF-7
Experimental: (§1) Two different human breast cancer cell lines (MCF-7 and MDA-MB-231), lung cancer cell line (A-549) and normal cell (Human Dermal Fibroblast) were purchased from Pasture Institute of Iran, Tehran, Iran. The medium of RPMI 1640 (PAA, Germany) including sodium bicarbonate and N-hydroxyethylpiperazone-n-2-ethanesulfonic Acid (HEPES, Biosera, England) was used to maintain the cell lines. The medium was enriched with fetal bovine serum (FBS; Gibco, USA) and antibiotics. Then, incubated in air atmosphere enriched 5% CO2 at 37 °C. The cytotoxic activity of all fractions and compounds were examined by the MTT (3-[4,5-dimethylthiazole-2-yl]-2,5-diphenyltetrazolium bromide) (Sigma-Aldrich, USA) assay.
(§2) Cancer is the second leading cause of death and responsible for approximately 13% of mortality in the world. […] One of the efficient approaches to new drugs is screening herbal extracts. In the present study, S. macrosiphon was selected for the possible cytotoxic activity. For this purpose, different fractions of aerial parts of the plants including n-hexane, chloroform, ethyl acetate, and water-soluble fractions were screened towards lung cancer cell line (A549) and breast cancer cell lines (MCF-7 and MDA-MB-231) as well as normal cell, human dermal fibroblasts (HDF), using MTT assay comparing with etoposide as a standard drug (Table 2). The inhibitory concentration, 50% (IC50) values (µg /mL) were calculated by linear regression analysis, expressed in mean ± SD.

[3] = tested on: A549 lung cancer cell line; assay: MTT cytotoxicity assay, A549; assay type: cell-based, human; details: for IC50: Homo sapiens; for selectivity index A549: IC50 HDF / IC50 A549
Experimental: as §1, §2

[4] = tested on: MDA-MB-231 human breast cancer cell line; assay: MTT cytotoxicity assay, MDA-MB-231; assay type: cell-based; details: for IC50: Homo sapiens; for selectivity index MDA-MB-231: IC50 HDF / IC50 MDA-MB-231
Experimental: as §1, §2

[5] = tested on: Human Dermal Fibroblast (HDF); assay: MTT cytotoxicity assay, normal cells; assay type: cell-based; details: read-out: IC50 HDF
Experimental: as §1, §2

[6] = MDA-MB-231, read-out: IC50 MDA-MB-231
[7] = MTT assay, normal cells, isolated compounds
[8] = MCF7, MTT assay, isolated compounds, read-out: IC50 MCF-7
[9] = A549, MTT assay, isolated compounds, read-out: IC50 A549
[10] = MDA-MB-231, MTT assay, isolated compounds, read-out: IC50 MDA-MB-231

SMILES | cytotoxicity [1] | IC50 ([2]; MCF7, read-out: IC50 MCF-7) [µM] | IC50 ([3]; A549, read-out: IC50 A549) [µM] | IC50 [4, 6] [µM] | IC50 [5] [µM] | selectivity index MCF-7 [2] | selectivity index A549 [3] | selectivity index MDA-MB-231 [4] | IC50 [5, 7] [µM] | IC50 ([5]; MTT assay, normal cells, mean ± SD, fractions of S. macrosiphon) [µg/mL] | IC50 [2, 8] [µM] | IC50 ([2]; MCF7, MTT assay, mean ± SD, fractions of S. macrosiphon, read-out: IC50 MCF-7) [µg/mL] | IC50 [3, 9] [µM] | IC50 ([3]; A549, MTT assay, mean ± SD, fractions of S. macrosiphon, read-out: IC50 A549) [µg/mL] | IC50 [4, 10] [µM] | IC50 ([4]; MDA-MB-231, MTT assay, mean ± SD, fractions of S. macrosiphon, read-out: IC50 MDA-MB-231) [µg/mL] | melting point [°C]
CC[C@H](CC[C@@H](C)[C@H]1CC[C@H]2[C@@H]3CC=C4C[C@@H](O)CC[C@]4(C)[C@H]3CC[C@]12C)C(C)C [Compound 4, β-sitosterol] | no activity | > 100 | > 100 | > 100 | – | – | – | – | – | – | – | – | – | – | – | – | –
C=C[C@]1(C)CCC2[C@@]3(C)CCCC(C)(C)C3CC[C@@]2(C)O1 (stereo partly drawn) [Compound 1, 13-epi manoyl oxide] | – | 15.8 ± 0.35 | 19.4 ± 1.96 | 22.2 ± 1.72 | 338 ± 9.2 | 21.4 | 17.4 | 15.2 | – | – | – | – | – | – | – | – | –
COc1cc([C@@H]2c3cc4c(cc3[C@@H](O[C@@H]3O[C@@H]5CO[C@@H](C)O[C@H]5[C@H](O)[C@H]3O)[C@H]3COC(=O)[C@H]23)OCO4)cc(OC)c1O [Etoposide, reference compound] | – | – | – | – | – | 4.2 | 5.6 | 4.6 | 158 ± 2.04 | 92.7 ± 1.2 | 37.5 ± 0.66 | 22.1 ± 0.39 | 28.2 ± 1.32 | 16.6 ± 0.78 | 34.5 ± 0.36 | 20.3 ± 0.21 | –
C=C[C@]1(C)CCC2[C@@]3(C)CCCC(C)(C)C3[C@@H](O)C[C@@]2(C)O1 (stereo partly drawn) [Compound 2, 6α-hydroxy-13-epimanoyl oxide] | – | – | – | – | – | – | – | – | > 653 | – | 98 ± 11.3 | – | 170 ± 11.6 | – | 120 ± 5.09 | – | 95 to 98
COc1ccc(-c2cc(=O)c3c(O)cc(OC)cc3o2)cc1 [Compound 3, 5-hydroxy-7,4'-dimethoxyflavone] | – | – | – | – | – | – | – | – | > 971 | – | 428 ± 23.1 | – | 469 ± 22.8 | – | 470 ± 23.1 | – | –

Reference: PMC7814726, “Phytochemical constituents and biological activities of Salvia macrosiphon Boiss” (BMC Chemistry, 2021)
